Measurements published in PMC117120 (BMC Biochemistry, 2002).
Residue numbers refer to the chain shown, from its start.

Tests used:
Settings in all cases: ± SE
[1] = target: T1, N151A mutant mouse 5-HT3ASR (Mus musculus, UniProt P23979, N152A); assay: [^3H]granisetron saturation binding, N151A receptor
T1 sequence (P23979 24-483 isoform P23979-2 N152A): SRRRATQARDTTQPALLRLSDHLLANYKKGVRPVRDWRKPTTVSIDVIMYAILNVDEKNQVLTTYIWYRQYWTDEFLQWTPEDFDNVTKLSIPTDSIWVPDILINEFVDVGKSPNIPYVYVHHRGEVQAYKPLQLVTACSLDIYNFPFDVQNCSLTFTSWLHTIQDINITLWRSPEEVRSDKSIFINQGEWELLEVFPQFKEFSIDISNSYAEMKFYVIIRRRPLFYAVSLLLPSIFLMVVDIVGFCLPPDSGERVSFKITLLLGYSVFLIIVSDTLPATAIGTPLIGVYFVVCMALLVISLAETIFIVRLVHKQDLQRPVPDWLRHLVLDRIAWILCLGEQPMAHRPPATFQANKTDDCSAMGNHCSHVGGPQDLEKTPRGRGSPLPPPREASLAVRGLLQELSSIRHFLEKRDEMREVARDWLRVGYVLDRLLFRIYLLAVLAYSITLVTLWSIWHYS

[2] = target: T2, R146A mutant mouse 5-HT3ASR (Mus musculus, UniProt P23979, R147A); assay: [^3H]granisetron saturation binding, R146A receptor
T2 sequence (P23979 24-483 isoform P23979-2 R147A): T1 sequence (P23979 24-483 isoform P23979-2 N152A) with R124A, A129N

[3] = target: T3, H145A mutant mouse 5-HT3ASR (Mus musculus, UniProt P23979, H146A); assay: [^3H]granisetron saturation binding, H145A receptor
T3 sequence (P23979 24-483 isoform P23979-2 H146A): T1 sequence (P23979 24-483 isoform P23979-2 N152A) with H123A, A129N

Bmax [1]: 4.9 ± 1.1 pmol/mg protein
Hill coefficient (n) [1]: 1.66 ± 0.16
Bmax [2]: 1.0 ± .16 pmol/mg protein
Bmax [3]: 0.81 ± .07 pmol/mg protein
Hill coefficient (n) [3]: 1.38 ± 0.17
SMILES: CN1C2CCCC1CC(NC(=O)c1nn(C)c3ccccc13)C2 (centres unmarked) [[^3H]granisetron]
